The target of experiment [1] is T1, butyrylcholinesterase (BuChE) (Homo sapiens, UniProt P06276).
T1 construct: purchased Sigma 9001-08-5 (this is the CAS number of cholinesterase, not a catalogue number)
In words: biochemical. On the procedure: (§1) A spectrophotometric analysis was conducted by Ellman et al. to determine the inhibition of ChEs (AChE and BuChE). […] An incubation of 15 min was performed at room temperature with 140 L of sodium phosphate buffer (pH 8.0), 20 L of AChE/BuChE solution, and 20 L of the test sample. AChE/BuChE solutions containing DTNB were introduced into the 10 L solution to initiate the reaction. […] A percentage of inhibition was calculated using the ratio of enzyme activity in the presence of the test sample (E), minus enzyme activity without the test sample (S), expressed as E–S/E100. Each substance’s inhibition of substrate hydrolysis by ChE was quantified using its IC50 value (g/mL) or M. Compounds with the same IC50 values are calculated using the same standardized plot.

Experiment [2] concerns the target T2, acetylcholinesterase (AChE) (Homo sapiens, UniProt P22303).
T2 construct: purchased Sigma 9000-81-1 (so in the source); this is the CAS number of acetylcholinesterase, not a catalogue number
Nature of the experiment: biochemical. The procedure:
as §1

The mark [3] stands for this setting: substrate BTCh, DTNB, pH 8.0, 15 min incubation, read-out: BuChE IC50 ± SEM.
[4] abbreviates: printed without unit in text / Figure 2, read-out: AChE IC50.
The mark [5] stands for this setting: substrate ATCh, DTNB, pH 8.0, 15 min incubation, read-out: AChE IC50 ± SEM.
The mark [6] stands for this setting: printed without unit in Figure 2 (second value of each pair), read-out: BuChE IC50.

Structures are written as SMILES. “And” between values parts separate entries of the source, which are not always exact repeats. Equal entries are not always repeated. Where two headings read alike, the source gives them in different places.

T1 sequence (P06276 29-602): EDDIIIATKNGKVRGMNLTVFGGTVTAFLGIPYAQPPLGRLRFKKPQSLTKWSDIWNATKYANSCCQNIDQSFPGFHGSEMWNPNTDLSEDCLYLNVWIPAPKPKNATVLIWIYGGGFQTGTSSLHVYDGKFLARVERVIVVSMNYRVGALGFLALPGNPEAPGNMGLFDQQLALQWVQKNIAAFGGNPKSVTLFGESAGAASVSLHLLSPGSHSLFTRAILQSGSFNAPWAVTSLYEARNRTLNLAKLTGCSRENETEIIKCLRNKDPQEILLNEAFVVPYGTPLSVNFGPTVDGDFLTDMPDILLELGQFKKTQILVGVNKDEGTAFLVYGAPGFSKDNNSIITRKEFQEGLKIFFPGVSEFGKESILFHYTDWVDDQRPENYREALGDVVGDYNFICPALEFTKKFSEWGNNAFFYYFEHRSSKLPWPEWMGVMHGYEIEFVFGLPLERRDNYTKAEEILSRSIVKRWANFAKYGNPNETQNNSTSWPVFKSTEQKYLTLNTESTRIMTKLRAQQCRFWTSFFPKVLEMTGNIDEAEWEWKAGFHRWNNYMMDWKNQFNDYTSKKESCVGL
T2 sequence (P22303 32-614): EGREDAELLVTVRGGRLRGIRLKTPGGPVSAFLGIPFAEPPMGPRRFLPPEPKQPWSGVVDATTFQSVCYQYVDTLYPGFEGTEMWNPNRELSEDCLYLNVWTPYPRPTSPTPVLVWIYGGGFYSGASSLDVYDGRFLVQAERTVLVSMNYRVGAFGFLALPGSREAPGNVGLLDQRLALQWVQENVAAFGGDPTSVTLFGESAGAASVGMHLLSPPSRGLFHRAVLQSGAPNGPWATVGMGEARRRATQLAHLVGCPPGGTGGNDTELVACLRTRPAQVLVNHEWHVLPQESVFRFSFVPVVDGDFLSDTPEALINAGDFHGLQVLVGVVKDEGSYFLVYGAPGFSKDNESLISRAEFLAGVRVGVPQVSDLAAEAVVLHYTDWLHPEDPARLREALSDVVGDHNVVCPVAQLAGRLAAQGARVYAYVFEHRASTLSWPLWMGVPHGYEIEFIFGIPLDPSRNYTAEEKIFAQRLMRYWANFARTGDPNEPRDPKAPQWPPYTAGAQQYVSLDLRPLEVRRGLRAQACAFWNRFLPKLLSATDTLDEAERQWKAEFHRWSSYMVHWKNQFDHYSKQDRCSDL

Regarding `Cc1ccc(/C=C2/S/C(=N\c3nnc(-c4ccc5[nH]ncc5c4)s3)NC2=O)c(C)c1` [Compound 3, (Z)-2-((5-(1H-Indazol-5-yl)-1,3,4-Thiadiazol-2-yl)Imino)-5-((E)-2,4-Dimethylbenzylidene)Thiazolidin-4-One], the figures for the IC50 in experiment [1] (setting [3]), in experiment [2] (setting [4]) and in experiment [2] (setting [5]) were 8.8 ± 0.13 µM, 8.26 ± 0.4 µM and 8.26 ± 0.4 µM, respectively.
For `COc1cccc(/C=C2/S/C(=N\c3nnc(-c4ccc5[nH]ncc5c4)s3)NC2=O)c1` [Compound 6, (Z)-2-((5-(1H-Indazol-5-yl)-1,3,4-Thiadiazol-2-yl)Imino)-5-((E)-3-Methoxybenzylidene)Thiazolidin-4-One], the IC50 (as a rule, the concentration that inhibits the measured activity by half) in experiment [1] (setting [3]) turned out to be 13 ± 0.15 µM; in experiment [2] (setting [4]), 12.7 ± 0.33 µM; in experiment [2] (setting [5]) it was 12.7 ± 0.33 µM.
For `Cc1cc(Br)cc(/C=C2/S/C(=N\c3nnc(-c4ccc5[nH]ncc5c4)s3)NC2=O)c1` [Compound 12, (Z)-2-((5-(1H-Indazol-5-yl)-1,3,4-Thiadiazol-2-yl)Imino)-5-((E)-3-Bromo-5-Methylbenzylidene)Thiazolidin-4-One], the IC50 was found to be 26.2 ± 0.67 µM in experiment [1] (setting [3]), 25.12 ± 0.18 µM in experiment [2] (setting [4]) and 25.12 ± 0.18 µM in experiment [2] (setting [5]).
With `Cc1cc(C)cc(/C=C2/S/C(=N\c3nnc(-c4ccc5[nH]ncc5c4)s3)NC2=O)c1` [Compound 4, (Z)-2-((5-(1H-Indazol-5-yl)-1,3,4-Thiadiazol-2-yl)Imino)-5-((E)-3,5-Dimethylbenzylidene)Thiazolidin-4-One], the half-inhibitory concentration (IC50) in experiment [1] (setting [3]) stood at 8.84 ± 0.98 µM; in experiment [2] (setting [4]) it was 8.6 ± 1.05 µM; in experiment [2] (setting [5]) it was 8.6 ± 1.05 µM.
Consider `O=C1N/C(=N/c2nnc(-c3ccc4[nH]ncc4c3)s2)S/C1=C/c1ccc(Br)cc1` [Compound 10, (Z)-2-((5-(1H-Indazol-5-yl)-1,3,4-Thiadiazol-2-yl)Imino)-5-((E)-4-Bromobenzylidene)Thiazolidin-4-One], for which the concentration for half-maximal inhibition (IC50) was 25 ± 0.44 µM in experiment [1] (setting [3]), 24.68 ± 0.12 µM in experiment [2] (setting [4]) and 24.68 ± 0.12 µM in experiment [2] (setting [5]).
`O=C1N/C(=N/c2nnc(-c3ccc4[nH]ncc4c3)s2)S/C1=C/c1ccccc1F` [Compound 15, (Z)-2-((5-(1H-Indazol-5-yl)-1,3,4-Thiadiazol-2-yl)Imino)-5-((E)-2-Fluorobenzylidene)Thiazolidin-4-One]: the concentration for half-maximal inhibition (IC50) was 1.27 ± 0.4 µM in experiment [1] (setting [6]), 1.27 ± 0.4 µM in experiment [1] (setting [3]), 1.24 ± 0.36 µM in experiment [2] (setting [4]) and 1.24 ± 0.36 µM in experiment [2] (setting [5]).
Turning to `O=C1N/C(=N/c2nnc(-c3ccc4[nH]ncc4c3)s2)S/C1=C/c1cccc(F)c1` [Compound 16, (Z)-2-((5-(1H-Indazol-5-yl)-1,3,4-Thiadiazol-2-yl)Imino)-5-((E)-3-Fluorobenzylidene)Thiazolidin-4-One], the half-inhibitory concentration (IC50) turned out to be 1.2 ± 0.47 µM in experiment [1] (setting [6]), 1.2 ± 0.47 µM in experiment [1] (setting [3]), 1.2 ± 0.58 µM in experiment [2] (setting [4]) and 1.2 ± 0.58 µM in experiment [2] (setting [5]).
In the case of `O=C1N/C(=N/c2nnc(-c3ccc4[nH]ncc4c3)s2)S/C1=C/c1ccc(Cl)c(Cl)c1` [Compound 8, (Z)-2-((5-(1H-Indazol-5-yl)-1,3,4-Thiadiazol-2-yl)Imino)-5-((E)-3,4-Dichlorobenzylidene)Thiazolidin-4-one], the concentration for half-maximal inhibition (IC50) in experiment [1] (setting [3]) was found to be 1.29 ± 0.41 µM; in experiment [2] (setting [5]), 1.22 ± 0.64 µM.
As for `O=C1N/C(=N/c2nnc(-c3ccc4[nH]ncc4c3)s2)S/C1=C/c1cc(Cl)c(Cl)c([N+](=O)[O-])c1` [Compound 1, (Z)-2-((5-(1H-Indazol-5-yl)-1,3,4-Thiadiazol-2-yl)Imino)-5-((E)-3,4-Dichloro-5-Nitrobenzylidene)Thiazolidin-4-One], the IC50 in experiment [1] (setting [6]) is 1.19 ± 0.42 µM; in experiment [1] (setting [3]) it was 0.89 µM and 1.19 µM; in experiment [2] (setting [5]), 0.86 µM and 1.1 µM.
Take `O=C1N/C(=N/c2nnc(-c3ccc4[nH]ncc4c3)s2)S/C1=C/c1cccc2ccccc12` [Compound 13, (2Z,5E)-2-((5-(1H-Indazol-5-yl)-1,3,4-Thiadiazol-2-yl)Imino)-5-(Naphthalen-1-Ylmethylene)Thiazolidin-4-One]: the “AChE IC50” value in experiment [2] (printed without unit in text / Figure 2) is recorded as “no discernable activity”.
`O=C1N/C(=N/c2nnc(-c3ccc4[nH]ncc4c3)s2)S/C1=C/c1ccc([N+](=O)[O-])cc1` [Compound 7, (Z)-2-((5-(1H-Indazol-5-yl)-1,3,4-Thiadiazol-2-yl)Imino)-5-((E)-4-Nitrobenzylidene)Thiazolidin-4-One]: the IC50 amounted to 1.57 ± 0.28 µM in experiment [1] (setting [3]) and 1.4 ± 0.31 µM in experiment [2] (setting [5]).
For `O=C1N/C(=N/c2nnc(-c3ccc4[nH]ncc4c3)s2)S/C1=C/c1ccc(Br)c([N+](=O)[O-])c1` [Compound 17, (Z)-2-((5-(1H-Indazol-5-yl)-1,3,4-Thiadiazol-2-yl)Imino)-5-((E)-4-Bromo-3-Nitrobenzylidene)Thiazolidin-4-One], the 50% inhibitory concentration (IC50) in experiment [1] (setting [3]) amounted to 20.5 ± 0.86 µM; in experiment [2] (setting [4]), 22.3 ± 1 µM; in experiment [2] (setting [5]) it was 22.3 ± 1 µM.
As for `O=C1N/C(=N/c2nnc(-c3ccc4[nH]ncc4c3)s2)S/C1=C/c1ccc(F)cc1O` [Compound 14, (Z)-2-((5-(1H-Indazol-5-yl)-1,3,4-Thiadiazol-2-yl)Imino)-5-((E)-4-Fluoro-2-Hydroxybenzylidene)Thiazolidin-4-One], the 50% inhibitory concentration (IC50) in experiment [1] (setting [6]) is 0.98 ± 0.48 µM; in experiment [1] (setting [3]), 1.19 µM and 0.98 µM; in experiment [2] (setting [4]) it was 0.92 ± 0.1 µM; in experiment [2] (setting [5]) it was 1.1 µM and 0.92 µM.
Consider `O=C1N/C(=N/c2nnc(-c3ccc4[nH]ncc4c3)s2)S/C1=C/c1cccc(Br)c1` [Compound 11, (Z)-2-((5-(1H-Indazol-5-yl)-1,3,4-Thiadiazol-2-yl)Imino)-5-((E)-3-Bromobenzylidene)Thiazolidin-4-One], for which the IC50 came to 27.08 ± 0.19 µM in experiment [1] (setting [3]), 26.7 ± 0.84 µM in experiment [2] (setting [4]) and 26.7 ± 0.84 µM in experiment [2] (setting [5]).
With `COc1ccc(/C=C2/S/C(=N\c3nnc(-c4ccc5[nH]ncc5c4)s3)NC2=O)cc1` [Compound 5, (Z)-2-((5-(1H-Indazol-5-yl)-1,3,4-Thiadiazol-2-yl)Imino)-5-((E)-4-Methoxybenzylidene)Thiazolidin-4-One], the concentration for half-maximal inhibition (IC50) came to 10.6 ± 0.74 µM in experiment [1] (setting [3]), 10.4 ± 0.98 µM in experiment [2] (setting [4]) and 10.4 ± 0.98 µM in experiment [2] (setting [5]).
For `O=C1N/C(=N/c2nnc(-c3ccc4[nH]ncc4c3)s2)S/C1=C/c1ccccc1Cl` [Compound 2, (Z)-2-((5-(1H-Indazol-5-yl)-1,3,4-Thiadiazol-2-yl)Imino)-5-((E)-2-Chlorobenzylidene)Thiazolidin-4-One], the half-inhibitory concentration (IC50) turned out to be 3.36 ± 0.28 µM in experiment [1] (setting [3]), 3.11 ± 0.59 µM in experiment [2] (setting [4]) and 3.11 ± 0.59 µM in experiment [2] (setting [5]).
Regarding `O=C1N/C(=N/c2nnc(-c3ccc4[nH]ncc4c3)s2)S/C1=C/c1ccc(C(F)(F)F)cc1` [Compound 9, (Z)-2-((5-(1H-Indazol-5-yl)-1,3,4-Thiadiazol-2-yl)Imino)-5-((E)-4-(Trifluoromethyl)Benzylidene)Thiazolidin-4-One], the IC50 in experiment [1] (setting [6]) was determined as 0.89 ± 0.12 µM; in experiment [1] (setting [3]), 0.89 ± 0.12 µM; in experiment [2] (setting [4]), 0.86 ± 0.3 µM; in experiment [2] (setting [5]) it was 0.86 ± 0.3 µM.
